What was measured:
[1] = system: duck salad; test: Test B flood test duck salad; assay type: in vivo, Heteranthera limosa
Procedure, shortened: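 Flood test on plants grown to the 2-leaf stage; treated plants kept in greenhouse twelve to sixteen days, then visually rated against controls on a 0 (no effect) to 10 (complete control) scale.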

[2] = system: corn; test: Test B pre/postemergence corn; assay type: in vivo, Zea mays
Procedure, shortened: (§1)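 Response is a visual 0-to-10 score relative to untreated plants, where 0 means no effect and 10 means complete control, taken twelve to sixteen days after application. Treatments went onto soil at planting and onto foliage of 1- to 4-leaf plants, using a surfactant-containing non-phytotoxic solvent.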

[3] = system: rape; test: Test B pre/postemergence rape; assay type: in vivo, Brassica napus
Procedure, shortened: as §1

[4] = system: sugar beet; test: Test B pre/postemergence sugar beet; assay type: in vivo, Beta vulgaris
Procedure, shortened: as §1

[5] = Postemergence, Rate 62 g/ha, scale 0 to 10, 0 is no effect, 10 is complete control
[6] = Postemergence, Rate 125 g/ha, scale of 0 to 10 where 0 is no effect and 10 is complete control
[7] = Postemergence, Rate 250 g/ha, scale of 0 to 10, 0 is no effect, 10 is complete control
[8] = Postemergence, Rate 500 g/ha, scale of 0 to 10 where 0 is no effect and 10 is complete control
[9] = Preemergence, Rate 62 g/ha, scale 0 to 10 (0 no effect, 10 complete control)
[10] = Preemergence, Rate 125 g/ha, scale of 0 to 10 where 0 is no effect and 10 is complete control
[11] = Preemergence, Rate 250 g/ha, scale 0 to 10 (0 no effect, 10 complete control)
[12] = Preemergence, Rate 500 g/ha, scale of 0 to 10 where 0 is no effect and 10 is complete control
[13] = Postemergence, Rate 250 g/ha, scale 0 to 10
[14] = Preemergence, Rate 250 g/ha, scale 0 to 10, 0 is no effect, 10 is complete control
[15] = Preemergence, Rate 500 g/ha, scale 0 to 10, 0 is no effect, 10 is complete control
[16] = Rate 125 g/ha, Postemergence, scale 0 to 10, 0 is no effect, 10 is complete control

## CCOC(Cn1c(=O)on(C(=O)N(c2ccc(F)cc2)C(C)C)c1=O)OCC [Compound 629]
[1]; Rate 62 g/ha, flood test species, Pre-emergence, visual evaluation after twelve to sixteen days
  Plant response rating, Ducksalad (0 to 10 scale, 0 is no effect, 10 is complete control): 0
[1]; Rate 125 g/ha, under heading Pre-emergence, flood test species, visual evaluation after twelve to sixteen days
  Ducksalad plant response rating (0 to 10 scale, 0 is no effect, 10 is complete control): 0
[1]; Rate 250 g/ha, Pre-emergence (flood test species), scale 0 to 10, 0 is no effect, 10 is complete control
  Ducksalad plant response rating: 0
[1]; Rate 500 g/ha, Pre-emergence section of Table B, 0 to 10 scale (0 no effect, 10 complete control)
  Ducksalad plant response rating: 0
[2]; [5]
  Plant response rating, Corn: 3
[2]; [6]
  Plant response rating, Corn: 3
[2]; [7]
  Corn plant response rating: 4
[2]; [8]
  Plant response rating, Corn: 6
[2]; [9]
  Corn plant response rating: 1
[2]; [10]
  Corn plant response rating: 2
[2]; [11]
  Plant response rating, Corn: 6
[2]; [12]
  Plant response rating, Corn: 8
[3]; [5]
  Plant response rating, Rape: 0
[3]; [6]
  Plant response rating, Rape: 0
[3]; [7]
  Rape plant response rating: 0
[3]; [8]
  Plant response rating, Rape: 3
[3]; [9]
  Rape plant response rating: 0
[3]; [10]
  Rape plant response rating: 0
[3]; [11]
  Plant response rating, Rape: 4
[3]; [12]
  Plant response rating, Rape: 9
[4]; [5]
  Plant response rating, Sugarbeets: 0
[4]; [6]
  Plant response rating, Sugarbeets: 0
[4]; [7]
  Sugarbeets plant response rating: 0
[4]; [9]
  Sugarbeets plant response rating: 2
[4]; [11]
  Plant response rating, Sugarbeets: 3
[4]; [12]
  Plant response rating, Sugarbeets: 7

## C=C[Si](C)(C)Cn1c(=O)on(C(=O)N(c2ccc(Cl)cc2)C(C)C)c1=O [Compound 425]
[1]; Postemergence block (flood test species), Rate 250 g/ha, scale 0 to 10
  Ducksalad plant response rating: 0
[1]; Postemergence section (flood test species), Rate 500 g/ha, scale of 0 to 10 where 0 is no effect and 10 is complete control
  Ducksalad plant response rating: 0
[1]; Rate 62 g/ha, Postemergence (flood test species), scale of 0 to 10 where 0 is no effect and 10 is complete control
  Ducksalad plant response rating: 0
[1]; Rate 125 g/ha, Postemergence section (flood test species), scale 0 to 10, 0 is no effect, 10 is complete control
  Ducksalad plant response rating: 0
[2]; [13]
  Corn plant response rating: 0
[2]; [8]
  Corn plant response rating: 2
[2]; [9]
  Plant response rating, Corn: 0
[2]; [10]
  Plant response rating, Corn: 0
[2]; [14]
  Corn plant response rating: 0
[2]; [15]
  Corn plant response rating: 9
[2]; Rate 62 g/ha, Postemergence, scale of 0 to 10 where 0 is no effect and 10 is complete control
  Corn plant response rating: 0
[2]; [16]
  Corn plant response rating: 0
[3]; [13]
  Rape plant response rating: 2
[3]; [8]
  Rape plant response rating: 3
[3]; [9]
  Plant response rating, Rape: 0
[3]; [10]
  Plant response rating, Rape: 2
[3]; [14]
  Rape plant response rating: 2
[3]; [15]
  Rape plant response rating: 10
[3]; [16]
  Rape plant response rating: 0
[4]; [13]
  Sugarbeets plant response rating: 3
[4]; [8]
  Sugarbeets plant response rating: 4
[4]; [9]
  Plant response rating, Sugarbeets: 0
[4]; [10]
  Plant response rating, Sugarbeets: 0
[4]; [14]
  Sugarbeets plant response rating: 2
[4]; [15]
  Sugarbeets plant response rating: 2
[4]; [16]
  Sugarbeets plant response rating: 2

— US6737383B1, “Herbicidal oxadiazolidines” (priority 1999, dated 2004)
